From patent publication US20230257444A1, “FUSION PROTEIN AND COMBINATIONS THEREOF” (Agency for Science, Technology and Research, priority 2020, published 2023)

What was measured:
SC5314 Candida albicans = experiment: In vitro combination therapy checkerboard dilution assay (Amphotericin B & hDectin1-Fc) with human primary macrophages; format: cell-based; details: 24 hours, 37° C.
Procedure: Human peripheral blood CD14+ monocytes were cultured at 1×10^6 cells/mL in 5 mL of ImmunoCult™-SF Macrophage Differentiation Medium with Human Recombinant M-CSF at 50 ng/ml in a T-25 flask at 37° C. in a 5% CO2 incubator. On Day 4, 2.5 mL of fresh ImmunoCult™-SF Macrophage Differentiation Medium was added to the flask. On Day 6, M1 activation was initiated with the addition of 50 ng/mL IFN-γ. On Day 8, the macrophages were treated with ACCUTASE and scrapped from the flask. The cells were centrifuged and resuspended in RPMI medium with 10% FBS and seeded into 96 well plates at 10^5 cells/well. The co-culture assay involves the addition of 10^5 cells/well of SC5314 Candida albicans cells to wells containing 10^5 cells/well of human primary macrophages cells with final concentration of hDectin1-Fc at 0, 1, 10 or 100 g/ml and varying concentration of Amphotericin B in a checkerboard dilution assay format in a 96 well plate. The assay was incubated for 24 hr at 37° C. in a 5% CO2 atmosphere incubator and the MIC and MFC determined visual using a Nikon Eclipse Ti-E inverted microscope.
10′ Candida albicans cells and 10′ human primary macropahges were seeded per well in a checkerboard dilution assay of Amphotericin B with the respective concentration of hDectin1-Fc (0, 10, 100 μg/ml) and incubated for 24 hours at 37° C.

Candida albicans = experiment: Minimum inhibitory concentration assay (CLSI reference method); format: cell-based; details: 37° C.
Excerpt: Linker conjugation site and its length can affect the activity of drug in the way it is able to interact with its target as a result of a change in preferred conformation. Amphotericin B has two possible sites of conjugation: the carboxylic acid on the macrocyclic ring (C-linked) and the amine on the sugar (N-linked). To investigate how conjugation to each of these sites affects the activity of Amphotericin B, polyethylene glycol (PEG) linkers of three different repeat units were attached to them (FIG. 20) and their MIC of Candida albicans evaluated against the unconjugated free Amphotericin B.
The MIC assay of the N-linked and C-linked PEG conjugated Amphotericin B was conducted for 3 different PEG lengths of 4, 12 and 24 repeat units versus unconjugated Amphotericin B (Table 3). The PEG conjugated Amphotericin B and free Amphotericin B were diluted and incubated at 37° C. for 24 hrs with […] Candida albicans cells/well according to the CLSI reference method for antifungal susceptibility testing of yeasts.

For `C[C@@H]1[C@H](O)[C@@H](C)/C=C/C=C/C=C/C=C/C=C/C=C/C=C/[C@H](O[C@@H]2O[C@H](C)[C@@H](O)[C@H](N)[C@@H]2O)C[C@@H]2O[C@](O)(C[C@@H](O)C[C@@H](O)[C@H](O)CC[C@@H](O)C[C@@H](O)CC(=O)O[C@H]1C)C[C@H](O)[C@H]2C(=O)O` [Amphotericin B], the “basal MFC of Amphotericin B” value (SC5314 Candida albicans; absence of hDectin1-Fc) was 0.11 µM, the “MFC of Amphotericin B” value (SC5314 Candida albicans; hDectin1-Fc concentration of 100 µg/ml) was 0.06 µM and the “24hr MIC” value (Candida albicans) was 0.75 μm.
